# From US6369107B1, “Combined use of diclofenac and tribenoside to treat osteoarthritis” (KS Biomedix Ltd., priority 1994, dated 2002)
# Several values for one entry are separate records, joined by “and”; a condition that tells them apart may be missing. Equal values may be shown once.
# Tests used:
# [1] = tested on: matrix of cartilages of the tibial plateau of STR/ORT mice; assay: Quantitative interference microscopy of dry mass per unit area in the tibial plateau cartilage matrix of treated STR/ORT mice; type: in vivo; details: for effect on the dry mass per unit area (and therefore water content) of medial cartilage: feeding STR/ORT mice
# From the text: The extra-cellular factor was studied by quantitative interference microscopy, as described by Ross, “Phase Contrast and Interference Microscopy for Cell Biologists” Arnold: London, p.36 (1967). This form of microscopy allows the investigator to measure the dry mass, per unit area (Cs), in selected regions of a section or of a cell. This measurement then allows the assessment of water content (Cw): […]
# monoamine oxidase (MAO) [2] = assay: Localisation of monoamine oxidase (MAO) activity in chondrocytes of potentially osteoarthritic cartilage of mice; type: in vivo; details: feeding STR/ORT mice
# From the text: In normal articular cartilage (human as well as murine), monoamine oxidase in chondrocytes can be found located precisely in mitochondria. During the development of the natural disease in mice, these granules become larger and apparently burst, the monoamine oxidase (MAO) activity becomes distributed through the cytoplasm of the chondrocytes and even into the surrounding matrix. This was described by Chambers et al, Int. J. Exp. Path. 73:115-123 (1992), who related the MAO activity in the medial as against that in the (normal) lateral cartilage in untreated mice and in those treated with diclofenac.
# There was no sign of activity in the general cytoplasm or in the matrix.
# Results are shown in Table 1, i.e. the dry mass per μm in the matrix of cartilages of the tibial plateau of STR/ORT mice after various treatments. Three mice were treated with diclofenac (Df) alone, four with tribenoside (Tb) alone, and four with both (Df+Tb).
# monoamine oxidase (MAO) [3] = details: mice given the drug; background, Chambers et al 1992; cited from earlier work
# STR/ORT mice [4] = details: mice given the drug; background; cited from earlier work
# STR/ORT mice [5] = assay: Development of osteoarthritis / cartilage damage in STR/ORT mice; type: in vivo; details: fraction of mice
# From the text: The present invention is based on the postulate that two influences are involved in the development of OA: a cellular and an extracellular factor.
# [6] = STR/ORT mice, matrix of tibial plateau cartilage, one line per mouse, * duplicate sections
Compound,"Mass pg/unit area in the lateral cartilage [1, 6]","Mass pg/unit area in the medial cartilage [1, 6]",effect on the dry mass per unit area (and therefore water content) of medial cartilage [1],localisation of MAO activity / MAO activity in the medial cartilage (monoamine oxidase (MAO) [2]),localisation of the MAO in the potentially osteoarthritic cartilage (monoamine oxidase (MAO) [3]),development of OA (STR/ORT mice [4]),mice having severe OA (STR/ORT mice [5])
"CCOC1O[C@H]([C@@H](COCc2ccccc2)OCc2ccccc2)[C@H](OCc2ccccc2)[C@H]1O (stereo partly drawn) [Tb, tribenoside]",2.84 pg/unit area,2.54 pg/unit area and 2.76 pg/unit area and 2.58 pg/unit area and 2.77 pg/unit area and 2.29 pg/unit area and 2.44 pg/unit area and 3.14 pg/unit area,markedly increased,did not improve,–,–,–
"O=C(O)Cc1ccccc1Nc1c(Cl)cccc1Cl [Df, diclofenac sodium]",–,0.51 pg/unit area and 0.50 pg/unit area and 0.52 pg/unit area,no effect,–,marked improvement,did not stop the development of OA,at least 9/10
